# From patent US20230166255A1, “Methods And Devices For Detection Of Anticoagulants In Plasma And Whole Blood” (Massachusetts Institute of Technology, priority 2017, published 2023)
# Like-named read-outs stand apart in the source and are kept apart here.
# Assays:
# FXa = FXa (Homo sapiens, UniProt P00742); assay: Clotting curves: clot detection time versus FXa agonist gradient (FIGS. 7A-7C); format: biochemical
# Description: (§1) Clot detection agents can include fluorescent labeled fibrinogen, magnets, beads (may be fluorescent or colored) • b) Load into microfluidic device • i. See, e.g., FIGS. 1A-1D, 2A and 2B for examples of input loading configuration and order • c) Temperature control • i. Room temperature • ii. May increase up to 37° C.
# (§2) The time it takes for each of the combinations to form a clot is then plotted. […] Concentration of the agonist (FXa for FIGS. 7A-7C, and FIIa for FIG. 7D) is plotted on the X-axis for each of the figures.
# FIIa = FIIa (Homo sapiens, UniProt P00734)
# Description: as §1, §2
# Factor Xa = Factor Xa (Homo sapiens, UniProt P00742); assay: Clot detection in whole blood in parallel microfluidic channel device pre-coated with Factor Xa; format: biochemical; conditions: whole blood with unfractionated heparin, 10 minutes
# Description: FIGS. 4A and 4B are fluorescent images illustrating clot detection using whole blood in a parallel microfluidic channel device 410 according to an example embodiment. Microfluidic channels 420 were pre-coated with agonist, Factor Xa, at various concentrations (7.5 ng/mL, 75 ng/mL, 750 ng/mL) or with buffer alone (negative control). The fluorescent images are taken at one time point (10 minutes). Microfluidic channels were washed with buffer prior to use to leave only bound FXa within the microfluidic channel. Fresh whole blood was placed into each input port and the blood was drawn in through capillary action. The blood was left to flow for 10 minutes and then the channel was gently washed with buffer. Depicted is a brightfield image of two samples evaluated. […] Unfractionated heparin inhibits Factors IIa and Xa in an antithrombin III-dependent fashion, which is why the addition of these factors at appropriate concentrations can help recover the clotting capability of the sample.
# Chain of Factor Xa (P00742 235-488 limits assumed): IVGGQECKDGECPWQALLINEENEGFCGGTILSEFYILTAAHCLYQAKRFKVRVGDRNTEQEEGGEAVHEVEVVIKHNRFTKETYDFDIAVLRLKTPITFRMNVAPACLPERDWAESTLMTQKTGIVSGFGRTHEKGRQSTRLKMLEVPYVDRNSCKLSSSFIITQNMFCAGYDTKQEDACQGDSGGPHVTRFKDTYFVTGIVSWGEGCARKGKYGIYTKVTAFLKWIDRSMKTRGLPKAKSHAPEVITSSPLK
# Chain of Factor Xa (P00742 41-179 partner limits assumed): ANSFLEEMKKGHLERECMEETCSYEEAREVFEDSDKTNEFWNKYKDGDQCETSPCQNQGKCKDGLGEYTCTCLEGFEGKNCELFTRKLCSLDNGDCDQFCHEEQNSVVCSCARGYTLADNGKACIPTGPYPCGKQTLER
# Chain of FXa (P00742 235-488 limits assumed): as the sequence (P00742 235-488 limits assumed) above
# Chain of FXa (P00742 41-179 partner limits assumed): as the sequence (P00742 41-179 partner limits assumed) above
compound,measurement,setting,value
O=C(NC[C@H]1CN(c2ccc(N3CCOCC3=O)cc2)C(=O)O1)c1ccc(Cl)s1 [Rivaroxaban],clot formation time,"FXa; 250 ng/mL Rivaroxaban, agonist (FXa) concentration down to 375 ng/mL",significantly longer than the negative control but lower than 500 ng/mL
same,clot formation detected (time),"FXa; 500 ng/mL Rivaroxaban, agonist (FXa) down to 750 ng/mL",< 2.5 min
Dabigatran,clot formation detected (time),"FIIa; 250 ng/mL Dabigatran, agonist (FIIa) concentration down to 710 ng/mL",< 2.5 min
same,clot formation detected (time),"FIIa; 500 ng/mL Dabigatran, agonist (FIIa) down to 710 ng/mL",< 2.5 min
same,clot formation detected (time),"FIIa; < 25 ng/mL Dabigatran, agonist (FIIa) concentration down to 71 ng/mL",< 2.5 min
unfractionated heparin,clot formation,"Factor Xa; channels coated with 7.5, 75, 750 ng/mL FXa",gradient of clot formation dependent on the concentration of FXa in the channel
same,clot formation,"Factor Xa; negative control channel (buffer alone, no FXa)",minimal clot formation
